According to patent US20080014186A1, “Hla-A24 or Hla-A2 Binding Peptides of Parathyroid Hormone-Related Protein” (GREEN PEPTIDE CO., LTD., priority 2004, published 2008):

Assays:
[1] = test system: PBMCs of HLA-A2^+ healthy donors and prostate cancer patients; assay: Assay for peptide-specific CTLs in PBMCs (IFN-γ ELISA, peptide-pulsed T2 cells); type: cell-based, human; settings: for INF-γ production: T2 cells
[2] = test system: IgG in plasma of HLA-A2^+ healthy donors and prostate cancer patients; assay: Peptide-specific IgG in plasma by ELISA (HLA-A2-binding PTHrP peptides); set-up: species or system human; settings: for IgG reactive to the peptide in plasma (difference of OD): 1:100-diluted plasma
Protocol: Peptide-specific IgG levels in the plasma were measured by ELISA, as previously reported. In brief, peptide (20 μg/well)-immobilized plates were blocked with Block Ace (Yukijirushi, Tokyo, Japan) and washed with 0.05% Tween20-PBS, after which 100 μl/well of plasma sample diluted with 0.05% Tween20-Block Ace was added to the plate. After 2 hours incubation at 37° C., the plates were washed and further incubated for 2 hours with a 1:1000-diluted rabbit anti-human IgG (γ-chain-specific) (DAKO, Glostrup, Denmark). The plates were washed, and then 100 μl of 1:100-diluted goat anti-rabbit IgG-conjugated horseradish peroxidase (EnVision, DAKO) was added to each well, and the plates were then incubated at room temperature for 40 min. After the plates were washed once, 100 μl/well of tetramethyl benzidine substrate solution (KPL, Guildford, UK) was added, and the reaction was stopped by the addition of 1 M phosphoric acid. The values are shown as optical density (OD) units/ml, and responses to the HIV peptide were subtracted. IgG reactive to a corresponding PTHrP peptide was judged to be positive when the difference of the OD in 1:100-diluted plasma exceeded 0.05. The results that IgG reactive to either the PTHrP102-111 or the […] peptide was detected in 8 of 10 healthy donors and in 7 of 10 prostate cancers are shown in Table 2 hereinafter.
In a similar way to Example 3, it was examined whether IgGs reactive to peptides of PTHrP 42-51 and PTHrP 59-67 could be detected in the plasma of 10 healthy donors and 10 cancer patients. The cut-off value at 1:100-diluted plasma was ODO.054.

Sequence: IQDLRRRFFL [PTHrP 51-60]
- INF-γ production ([1]; HLA-A2^+ healthy donor #1 (A0201)): 0 pg/mL
- INF-γ production ([1]; HLA-A2^+ healthy donor #2 (A0201)): 79 pg/mL
- INF-γ production ([1]; HLA-A2^+ healthy donor #3 (A0201)): 0 pg/mL
- INF-γ production ([1]; HLA-A2^+ healthy donor #4 (A0201)): 314 pg/mL
- INF-γ production ([1]; HLA-A2^+ healthy donor #5 (A0206)): 0 pg/mL
- INF-γ production ([1]; HLA-A2^+ healthy donor #6 (A0206)): 46 pg/mL
- INF-γ production ([1]; HLA-A2^+ healthy donor #7 (A0206)): 0 pg/mL
- INF-γ production ([1]; HLA-A2^+ healthy donor #8 (A0206)): 16 pg/mL
- INF-γ production ([1]; HLA-A2^+ healthy donor #9 (A0206)): 0 pg/mL
- INF-γ production ([1]; HLA-A2^+ healthy donor #10 (A0207)): 14 pg/mL
- Total (donors with significant peptide-specific IFN-γ production / donors tested) ([1]; HLA-A2^+ healthy donors, p < 0.05): 2/10
- INF-γ production ([1]; HLA-A2^+ prostate cancer patient #1 (A0206)): 55 pg/mL
- INF-γ production ([1]; HLA-A2^+ prostate cancer patient #2 (A0210)): 187 pg/mL
- INF-γ production ([1]; HLA-A2^+ prostate cancer patient #3 (A0210)): 34 pg/mL
- INF-γ production ([1]; HLA-A2^+ prostate cancer patient #4 (A0206)): 33 pg/mL
- INF-γ production ([1]; HLA-A2^+ prostate cancer patient #5 (A0206)): 0 pg/mL
- INF-γ production ([1]; HLA-A2^+ prostate cancer patient #6 (A0207)): 0 pg/mL
- INF-γ production ([1]; HLA-A2^+ prostate cancer patient #7 (A0206)): 0 pg/mL
- INF-γ production ([1]; HLA-A2^+ prostate cancer patient #8 (A0206)): 2 pg/mL
- INF-γ production ([1]; HLA-A2^+ prostate cancer patient #9 (A0201)): 67 pg/mL
- INF-γ production ([1]; HLA-A2^+ prostate cancer patient #10 (A0201)): 21 pg/mL
- Total (patients with significant peptide-specific IFN-γ production / patients tested) ([1]; HLA-A2^+ prostate cancer patients, p < 0.05): 2/10
- IgG reactive to the peptide in plasma (difference of OD) ([2]; HLA-A2^+ healthy donor #1): 0.0945 OD
- IgG reactive to the peptide in plasma (difference of OD) ([2]; HLA-A2^+ healthy donor #2): 0.1338 OD
- IgG reactive to the peptide in plasma (difference of OD) ([2]; HLA-A2^+ healthy donor #3): — (IgG reactive to a corresponding peptide was judged to be positive when a difference of OD in a 1:100-diluted plasma was more than 0.054.)
- IgG reactive to the peptide in plasma (difference of OD) ([2]; HLA-A2^+ healthy donor #4): — (IgG reactive to a corresponding peptide was judged to be positive when a difference of OD in a 1:100-diluted plasma was more than 0.054.)
- IgG reactive to the peptide in plasma (difference of OD) ([2]; HLA-A2^+ healthy donor #5): — (IgG reactive to a corresponding peptide was judged to be positive when a difference of OD in a 1:100-diluted plasma was more than 0.054.)
- IgG reactive to the peptide in plasma (difference of OD) ([2]; HLA-A2^+ healthy donor #6): — (IgG reactive to a corresponding peptide was judged to be positive when a difference of OD in a 1:100-diluted plasma was more than 0.054.)
- IgG reactive to the peptide in plasma (difference of OD) ([2]; HLA-A2^+ healthy donor #7): 0.0675 OD
- IgG reactive to the peptide in plasma (difference of OD) ([2]; HLA-A2^+ healthy donor #8): — (IgG reactive to a corresponding peptide was judged to be positive when a difference of OD in a 1:100-diluted plasma was more than 0.054.)
- IgG reactive to the peptide in plasma (difference of OD) ([2]; HLA-A2^+ healthy donor #9): — (IgG reactive to a corresponding peptide was judged to be positive when a difference of OD in a 1:100-diluted plasma was more than 0.054.)
- IgG reactive to the peptide in plasma (difference of OD) ([2]; HLA-A2^+ healthy donor #10): — (IgG reactive to a corresponding peptide was judged to be positive when a difference of OD in a 1:100-diluted plasma was more than 0.054.)
- Total (IgG-positive donors / donors tested) ([2]; HLA-A2^+ healthy donors): 3/10
- IgG reactive to the peptide in plasma (difference of OD) ([2]; HLA-A2^+ prostate cancer patient #1): — (IgG reactive to a corresponding peptide was judged to be positive when a difference of OD in a 1:100-diluted plasma was more than 0.054.)
- IgG reactive to the peptide in plasma (difference of OD) ([2]; HLA-A2^+ prostate cancer patient #2): — (IgG reactive to a corresponding peptide was judged to be positive when a difference of OD in a 1:100-diluted plasma was more than 0.054.)
- IgG reactive to the peptide in plasma (difference of OD) ([2]; HLA-A2^+ prostate cancer patient #3): 0.0675 OD
- IgG reactive to the peptide in plasma (difference of OD) ([2]; HLA-A2^+ prostate cancer patient #4): — (IgG reactive to a corresponding peptide was judged to be positive when a difference of OD in a 1:100-diluted plasma was more than 0.054.)
- IgG reactive to the peptide in plasma (difference of OD) ([2]; HLA-A2^+ prostate cancer patient #5): — (IgG reactive to a corresponding peptide was judged to be positive when a difference of OD in a 1:100-diluted plasma was more than 0.054.)
- IgG reactive to the peptide in plasma (difference of OD) ([2]; HLA-A2^+ prostate cancer patient #6): — (IgG reactive to a corresponding peptide was judged to be positive when a difference of OD in a 1:100-diluted plasma was more than 0.054.)
- IgG reactive to the peptide in plasma (difference of OD) ([2]; HLA-A2^+ prostate cancer patient #7): — (IgG reactive to a corresponding peptide was judged to be positive when a difference of OD in a 1:100-diluted plasma was more than 0.054.)
- IgG reactive to the peptide in plasma (difference of OD) ([2]; HLA-A2^+ prostate cancer patient #8): — (IgG reactive to a corresponding peptide was judged to be positive when a difference of OD in a 1:100-diluted plasma was more than 0.054.)
- IgG reactive to the peptide in plasma (difference of OD) ([2]; HLA-A2^+ prostate cancer patient #9): — (IgG reactive to a corresponding peptide was judged to be positive when a difference of OD in a 1:100-diluted plasma was more than 0.054.)
- IgG reactive to the peptide in plasma (difference of OD) ([2]; HLA-A2^+ prostate cancer patient #10): 0.0995 OD
- Total (IgG-positive patients / patients tested) ([2]; HLA-A2^+ prostate cancer patients): 2/10
